Patent US12410152B2, “Oxazole and thioazole-type cullin ring ubiquitin ligase compounds and uses thereof” (Proxygen GmbH, priority 2019, dated 2025)

Columns and labels:
Format in all cases: cell-based, human
[1] = tested on: KBM7 WT and UBE2Mmut cells; test: Primary phenotypic screen, differential viability KBM7 WT vs UBE2M mutant; conditions: 10 μM and 500 nM, 3 days
Protocol: Following this observation, it was rationalized that novel small molecule degraders can be identified in an unbiased manner, simply by searching for compounds that lose activity in the absence of UBE2M. 2000 small molecules, mostly of unknown function/target, were tested for their antiproliferative effects in human leukemia cells (KBM7). These cells were either transduced with a control sgRNA (KBM7WT), or with an sgRNA targeting UBE2M, leading to a hypomorph (deletion of six amino acids) with a functional impairment (UBE2Mmut).
KBM7^WT and UBE2M^mut cells were treated with a compound library (2000 cytotoxic diverse small-molecules, mostly of unknown function/target). Briefly, the screening was divided in three parts 1) primary screening, 2) follow up and 3) validation. During the primary screening, cells were treated with 10 μM and 500 nM of every compound. […] After 3 days of treatment, cell viability was measured (CellTiter Glo, Promega). The screen was perform in 384-well plates (Corning 3712) and the reagent/compound dispensing system used was: Echo 520 Liquid Handler, Multidrop™ Combi Reagent Dispenser. Control compounds were included in several wells, in all the plates. Method for validation of IC021313.2, IC020822.1, IC020772.1, T6938051 as described above in (i).

KBM7 CUL4Amut cells = test: Cell viability assay, KBM7 CUL4A mutant; conditions: Table 2, data of FIG. 6; 3-day treatment; read-out: LC50 CUL4Amut
Protocol: KBM7 cells with the specified genetic backgrounds were grown in IMDM supplemented with 10% FBS and 1% penicillin/streptomycin (pen/strep). AsPC1, HCT116, NCI-H446 and 293T cells were grown in DMEM 10% FBS and 1% pen/strep. MV4; 11, Jurkat and Be (2) C cells were grown in RPMI 10% FBS 1% pen/strep. KBM7, AsPC1 and HCT116 cells expressing Cas9 were generated using the plasmid Lenti_Cas9_Blasti (Addgene #52962). The lentiviral plasmid lentiGuide-Puro (Addgene #52963) was used to express sgRNAs against the genes UBE2M (in KBM7-Cas9, AsPC1-Cas9 and HCT116-Cas9 cells), UBE2G1 (in KBM7-Cas9 cells) and […] (in KBM7-Cas9 cells). The lentiviral plasmid lentiGuide-Puro-IRES-mCherry (modified from Addgene #52963) was used to express sgRNAs against CUL4A (in KBM7-Cas9 cells). The lentiviral plasmid pLenti-PGK-Hygro-DEST-UBE2M was generated by Gateway cloning (empty destination vector Addgene #19066), and used to generate UBE2M^resc KBM7 cells.
Validating the previous results, a strong enrichment for cells transduced with UBE2Mtargeting sgRNAs was detected. […] The fact that Rbx1 was not detected in the initial experiment is likely explained by the fact that prolonged loss of RBX1 function is detrimental to cellular fitness. […] To understand if the tested compounds were uniquely dependent on CUL4B over CUL4A, a differential drug efficacy was assessed in dose ranging viability assays in KBM7 WT cells and isogenic clones deficient in either CUL4A, CUL4B, and UBE2G1. […]
KBM7^WT, mutant KBM7 clones (UBE2M^mut, UBE2M^resc, UBE2G1^mut CUL4A^mut, CUL4B^mut), and 3-day doxycycline pretreated KBM7^iCas9_sgDDB1 cells were seeded at a cell density of 50,000 cells/mL in 96-well plates with DMSO or drug, in triplicates. […] Cells were treated for 3 days, after which cell viability was assessed according to manufacturer's protocol (CellTiter Glo, Promega G7570). Survival curves and EC50 values were calculated by best-fit analysis of the log 10 drug concentration to fold change of drug-treated cells over DMSO-treated cells. […]

CDK12/13 = CDK12/13 destabilization (expression proteomics and Western blot); conditions: KBM7 cells
Protocol: The hypomorphic phenotype of the mutated UBE2M allele in KBM7 cells (KBM7 UBE2M^mut cells) was assessed. In this regard, CRISPR/Cas9-induced mutation of UBE2M inactivated CRL activity including CRL4^CRBN and CRL2^VHL. […] Additionally, CCNK destabilization by all three compounds was validated via time-resolved immunoblots wherein CCNK degradation was evident after two hours (FIG. 19c).
PBS-washed cell pellets were lysed in 50 mM Tris pH 7.9, 8M Urea and 1% CHAPS and incubated with shaking at 4° C. for at least 30 min. 20 μg of supernatants were run and transferred for detection. Antibodies used: CUL1 (Santa Cruz Biotechnology, sc-1276), CUL2 (Sigma-Aldrich, SAB2501565-100), CUL3 (Cell Signaling Technology, 2759), CUL4A (Cell Signaling Technology, 2699S), CUL4B (Proteintech, 12916-1-AP), CUL5 (Santa Cruz Biotechnology, sc-373822), UBE2M (Santa Cruz Biotechnology, sc-390064), DDB1 (Cell Signaling Technology, 5428S), CCNK (Bethyl, A301-939A), CDK12 (Cell Signaling Technology, 11973S), CDK13 (Bethyl, A301-458A), RBM39 (1:500, Santa Cruz Biotechnology sc-376531), V5 (Cell Signaling Technology, 13202), Ubiquityl-Histone H2A (K119) (Cell Signaling, 8240-20). ACTIN (Sigma-Aldrich, A5441), VINCUL1N (Santa Cruz Biotechnology, sc-25336). Secondary antibodies anti-mouse/rabbit/goat (Jackson ImmunoResearch 115-035-003, 111-035-003 and 705-035-003).
Comparison of overall proteome-wide changes in KBM7 cells treated with IC020772.1 (2.5 μM), IC021313.2 (7 μM) or T6938051 (3.5 μM) for 5 h and 12h, using quantitative proteomics based on isobaric tagging.

SMILES	hit in differential viability screen [1]	CC50 (KBM7 CUL4Amut cells)	CDK12/13 destabilization (CDK12/13)
O=C(CSc1nnc2c(n1)[nH]c1ccccc12)Nc1ccc(Cl)cn1 [IC020772.1]	stood out in terms of fold-change significance	1220 nM	milder CDK12/13 destabilization
Cc1ccc(C(=O)N2CSCC2C(=O)N=c2[nH]cc(C)s2)o1 (stereo not drawn) [Compound T6938051]	stood out in terms of fold-change significance	2260 nM	milder CDK12/13 destabilization
O=C(CSc1nc2ccccc2[nH]1)Nc1ccc(Cl)cn1 [IC021313.2]	stood out in terms of fold-change significance	1560 nM	milder CDK12/13 destabilization
